Data: patent US12187728B2 (Raze Therapeutics, Inc., priority 2015, dated 2025)

These compounds were tested against T1, Human MTHFD2 (Homo sapiens, UniProt P13995) (assay: MTHFD2 Activity Assay (dehydrogenase activity, diaphorase/resazurin coupled fluorescence)). Details: inhibitory activity (IC50 and/or binding constant); 0.2 nM MTHFD2, 11 concentrations.
T1 construct: residues 36-350 in Uniport ID P13995; His6 (N); made in house; host or cells: E. coli
T1 sequence (P13995 36-350): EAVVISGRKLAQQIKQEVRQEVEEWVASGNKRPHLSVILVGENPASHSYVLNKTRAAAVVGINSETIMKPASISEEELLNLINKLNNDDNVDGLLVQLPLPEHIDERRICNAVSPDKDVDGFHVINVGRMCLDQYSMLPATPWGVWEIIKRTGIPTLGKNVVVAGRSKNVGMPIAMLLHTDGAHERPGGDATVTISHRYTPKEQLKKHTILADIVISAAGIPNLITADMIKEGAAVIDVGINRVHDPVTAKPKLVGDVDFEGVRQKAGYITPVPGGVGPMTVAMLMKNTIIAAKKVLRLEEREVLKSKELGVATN
Type: biochemical
Description: Human MTHFD2 (residues 36-350 in Uniport ID P13995) was expressed as an N-terminal His6 tagged protein and purified in E. coli using nickel capture followed by size-exclusion chromatography.
MTHFD2 dehydrogenase activity oxidizes methylene tetrahyrofolate to methenyl-tetrahydrofolate with the concomitant reduction of NAD to NADH. MTHFD2 dehydrogenase activity was followed by coupling the generation of NADH to diaphorase catalyzed […] of resazurin to fluorescent resorufin. Briefly, control (DMSO) or compound was incubated with 0.2 nM MTHFD2 for 15 minutes in 10.5 μl assay buffer containing 100 mM Hepes, pH 8.0, 5 mM MgCl2, 5 mM KH2PO4, 0.05% BSA, 0.01% Tween-20 in a 384 well Griener, low volume, black plate. 10 μl of substrate buffer containing 70 μM CH2-THF, 1 mM NAD^+, 100 μM Resazurin and 0.42 mg/ml diaphorase was then added to initiate the reaction and the reaction plate was incubated for 30 minutes. 5 μl of 250 mM EDTA was then added to each well to stop the reaction and MTHFD2 activity was quantified by measuring resorufin fluorescence emission at 598 nm following excitation at 525 nm. Activity in positive control wells containing the complete reaction mixture and DMSO alone was set to 100% while activity in negative control wells with the complete reaction mix without MTHFD2 was set to 0%. 11 concentrations of each compound were tested and the fluorescent data at each concentration was normalized to the positive and negative controls and represented as % inhibition. Median inhibitory concentration (IC50) was calculated by fitting % inhibition at each concentration to a 4 parameter logistic fit equation using Graphpad Prizm.
The compound numbers correspond to the compound numbers in Table A (i.e., the example numbers).
`Cn1c(N[C@H]2CC[C@@H](O)C2)nc2c1c(=O)n(Cc1ccc3sccc3c1)c(=O)n2C` (racemic) [Example 74, (±)-1-(1-benzothiophen-5-ylmethyl)-8-{[(cis)-3-hydroxycyclopentyl]amino}-3,7-dimethyl-2,3,6,7-tetrahydro-1H-purine-2,6-dione or (±)-1-(1-benzothiophen-5-ylmethyl)-8-{[(trans)-3-hydroxycyclopentyl]amino}-3,7-dimethyl-2,3,6,7-tetrahydro-1H-purine-2,6-dione] was tested, and the IC50 was 0.01 to 1 µM. `CN(C)C1CCCC(Nc2nc3c(c(=O)n(Cc4ccc(Cl)c(Cl)c4)c(=O)n3C)n2C)C1` (racemic) [Example 84, (±)-1-(3,4-dichlorobenzyl)-8-(((cis)-3-(dimethylamino)cyclohexyl)amino)-3,7-dimethyl-3,7-dihydro-1H-purine-2,6-dione or (±)-1-(3,4-dichlorobenzyl)-8-(((trans)-3-(dimethylamino)cyclohexyl)amino)-3,7-dimethyl-3,7-dihydro-1H-purine-2,6-dione] was tested, and the IC50 was 1 to 5 µM. With `Cn1c(NC2CNC(=O)C2)nc2c1c(=O)n(Cc1ccc(Cl)c(Cl)c1)c(=O)n2C` (racemic) [Example 88, (±)-1-[(3,4-dichlorophenyl)methyl]-3,7-dimethyl-8-[(5-oxopyrrolidin-3-yl)amino]-2,3,6,7-tetrahydro-1H-purine-2,6-dione] the IC50 was 0.01 to 1 µM. For `Cn1c(NC2CCCNC2=O)nc2c1c(=O)n(Cc1ccc(Cl)c(Cl)c1)c(=O)n2C` (racemic) [Example 89, (±)-1-[(3,4-dichlorophenyl)methyl]-3,7-dimethyl-8-[(2-oxopiperidin-3-yl)amino]-2,3,6,7-tetrahydro-1H-purine-2,6-dione], the IC50 was 0.01 to 1 µM. `Cn1c(N[C@H]2CCCC[C@@H]2O)nc2c1c(=O)n(Cc1ccc(Cl)c(Cl)c1)c(=O)n2C` (racemic) [Example 91, (±)-1-[(3,4-dichlorophenyl)methyl]-8-{[(trans)-2-hydroxycyclohexyl]amino}-3,7-dimethyl-2,3,6,7-tetrahydro-1H-purine-2,6-dione±] gave an IC50 of 0.01 to 1 µM. Work on `Cn1c(N[C@@H]2CCCC[C@@H]2O)nc2c1c(=O)n(Cc1ccc(Cl)c(Cl)c1)c(=O)n2C` (racemic) [Example 95, (±)-1-[(3,4-dichlorophenyl)methyl]-8-{[(cis)-2-hydroxycyclohexyl]amino}-3,7-dimethyl-2,3,6,7-tetrahydro-1H-purine-2,6-dione] yielded an IC50 of 1 to 5 µM. `Cn1c(NC2CCCC(C(=O)O)C2)nc2c1c(=O)n(Cc1ccc(Cl)c(Cl)c1)c(=O)n2C` (racemic) [Example 114, (±)-3-(1-(3,4-dichlorobenzyl)-3,7-dimethyl-2,6-dioxo-2,3,6,7-tetrahydro-1H-purin-8-ylamino)cyclohexanecarboxylic acid] gave an IC50 of 0.01 to 1 µM. `Cn1c(NC2CCCC(C(=O)O)C2)nc2c1c(=O)n(Cc1ccc(C(F)(F)F)cc1)c(=O)n2C` (racemic) [Example 115, (±)-3-(3,7-dimethyl-2,6-dioxo-1-(4-(trifluoromethyl)benzyl)-2,3,6,7-tetrahydro-1H-purin-8-ylamino)cyclohexanecarboxylic acid] showed an IC50 of 1 to 5 µM. Compound `Cn1c(N[C@H]2CC[C@@H](O)C2)nc2c1c(=O)n(Cc1cc3ccccc3[nH]1)c(=O)n2C` (racemic) [Example 155, (±)-1-((1H-indol-2-yl)methyl)-8-((cis)-3-hydroxycyclopentylamino)-3,7-dimethyl-1H-purine-2,6(3H,7H)-dione] has an IC50 of 0.01 to 1 µM. Work on `Cn1c(N[C@H]2CC[C@@H](O)C2)nc2c1c(=O)n(Cc1ccc3cc[nH]c3c1)c(=O)n2C` (racemic) [Example 163, (±)-1-((1H-indol-6-yl)methyl)-8-((cis)-3-hydroxycyclopentylamino)-3,7-dimethyl-1H-purine-2,6(3H,7H)-dione] yielded an IC50 of 1 to 5 µM. Compound `Cn1c(NC2CCC(C)(O)C2)nc2c1c(=O)n(Cc1ccc(Cl)c(Cl)c1)c(=O)n2C` (racemic) [Example 164, 1-[(3,4-dichlorophenyl)methyl]-8-[(3-hydroxy-3-methylcyclopentyl)amino]-3,7-dimethyl-2,3,6,7-tetrahydro-1H-purine-2,6-dione] has an IC50 of 0.01 to 1 µM. With `Cn1c(N[C@H]2CC[C@@H](O)C2)nc2c1c(=O)n(Cc1ccc(C(F)(F)F)cc1)c(=O)n2C` (racemic) [Example 171, (±)-8-((cis)-3-hydroxycyclopentylamino)-3,7-dimethyl-1-(4-(trifluoromethyl)benzyl)-1H-purine-2,6(3H,7H)-dione] the IC50 was 1 to 5 µM. With `Cn1c(N[C@@H]2CCC[C@@H](O)C2)nc2c1c(=O)n(Cc1ccc(Cl)c(Cl)c1)c(=O)n2C` (racemic) [Example 172, (±)-1-(3,4-dichlorobenzyl)-8-((trans)-3-hydroxycyclohexylamino)-3,7-dimethyl-1H-purine-2,6(3H,7H)-dione] the IC50 was 0.01 to 1 µM. For `Cn1c(N[C@H]2CCC[C@@H](O)C2)nc2c1c(=O)n(Cc1ccc(Cl)c(Cl)c1)c(=O)n2C` (racemic) [Example 173, (±)-1-(3,4-dichlorobenzyl)-8-((cis)-3-hydroxycyclohexylamino)-3,7-dimethyl-1H-purine-2,6(3H,7H)-dione], the IC50 was 0.01 to 1 µM. For `Cn1c(N[C@H]2CC[C@@H](O)C2)nc2c1c(=O)n(Cc1cc3cc(Cl)ccc3[nH]1)c(=O)n2C` (racemic) [Example 175, (±)-1-((5-chloro-1H-indol-2-yl)methyl)-8-((cis)-3-hydroxycyclopentylamino)-3,7-dimethyl-1H-purine-2,6(3H,7H)-dione], the IC50 was 0.01 to 1 µM. Compound `Cc1ccc2[nH]c(Cn3c(=O)c4c(nc(N[C@H]5CC[C@@H](O)C5)n4C)n(C)c3=O)cc2c1` (racemic) [Example 177, (±)-8-((cis)-3-hydroxycyclopentylamino)-3,7-dimethyl-1-((5-methyl-1H-indol-2-yl)methyl)-1H-purine-2,6(3H,7H)-dione] has an IC50 of 0.01 to 1 µM. For `Cn1c(Cn2c(=O)c3c(nc(N[C@H]4CC[C@@H](O)C4)n3C)n(C)c2=O)cc2cc(Cl)ccc21` (racemic) [Example 178, (±)-1-((5-chloro-1-methyl-1H-indol-2-yl)methyl)-8-((cis)-3-hydroxycyclopentylamino)-3,7-dimethyl-1H-purine-2,6(3H,7H)-dione], the IC50 was 0.01 to 1 µM. For `Cn1c(Cn2c(=O)c3c(nc(N[C@H]4CC[C@@H](O)C4)n3C)n(C)c2=O)cc2ccccc21` (racemic) [Example 179, (±)-8-((cis)-3-hydroxycyclopentylamino)-3,7-dimethyl-1-((1-methyl-1H-indol-2-yl)methyl)-1H-purine-2,6(3H,7H)-dione], the IC50 was 0.01 to 1 µM. With `Cn1c(N[C@H]2CC[C@@H](O)C2)nc2c1c(=O)n(Cc1cc(-c3ccccc3)n[nH]1)c(=O)n2C` (racemic) [Example 180, (±)-8-((cis)-3-hydroxycyclopentylamino)-3,7-dimethyl-1-((3-phenyl-1H-pyrazol-5-yl)methyl)-1H-purine-2,6(3H,7H)-dione] the IC50 was > 10 µM. In the case of `Cn1c(NC2CCNC(=O)C2)nc2c1c(=O)n(Cc1ccc(Cl)c(Cl)c1)c(=O)n2C` (racemic) [Example 211, (±)-1-(3,4-dichlorobenzyl)-3,7-dimethyl-8-(2-oxopiperidin-4-ylamino)-1H-purine-2,6(3H,7H)-dione], the IC50 is reported as 0.01 to 1 µM. `Cn1c(NC2CNC(=O)C2)nc2c1c(=O)n(Cc1cc3ccccc3[nH]1)c(=O)n2C` (racemic) [Example 214, (±)-1-((1H-indol-2-yl)methyl)-3,7-dimethyl-8-(5-oxopyrrolidin-3-ylamino)-1H-purine-2,6(3H,7H)-dione] was tested, and the IC50 was 0.01 to 1 µM. Work on `Cn1c(NC2CCNC(=O)C2)nc2c1c(=O)n(Cc1cc3ccccc3[nH]1)c(=O)n2C` (racemic) [Example 215, (±)-1-((1H-indol-2-yl)methyl)-3,7-dimethyl-8-(2-oxopiperidin-4-ylamino)-1H-purine-2,6(3H,7H)-dione] yielded an IC50 of 0.01 to 1 µM. For `Cn1c(NC2CCNC2=O)nc2c1c(=O)n(Cc1cc3ccccc3[nH]1)c(=O)n2C` (racemic) [Example 222, (±)-1-((1H-indol-2-yl)methyl)-3,7-dimethyl-8-(2-oxopyrrolidin-3-ylamino)-1H-purine-2,6(3H,7H)-dione], the IC50 was 0.01 to 1 µM. Compound `Cn1c(N[C@@H]2CC[C@@H](O)C2)nc2c1c(=O)n(Cc1ccc(C#N)c(Cl)c1)c(=O)n2C` (racemic) [Example 247, (±)-2-chloro-4-((8-((trans)-3-hydroxycyclopentylamino)-3,7-dimethyl-2,6-dioxo-2,3,6,7-tetrahydro-1H-purin-1-yl)methyl)benzonitrile] has an IC50 of 1 to 5 µM. With `Cn1c(NC2CCCC(CO)C2)nc2c1c(=O)n(Cc1ccc(Cl)c(Cl)c1)c(=O)n2C` (racemic) [Example 254, (±)-1-(3,4-dichlorobenzyl)-8-(3-(hydroxymethyl)cyclohexylamino)-3,7-dimethyl-1H-purine-2,6(3H,7H)-dione] the IC50 was 0.01 to 1 µM.
